The supplement of paper PMC10883282

Key:
Assay in all cases: relative viability vs DMSO control (72 h) (fraction); higher = more viable cells
[1] = test system: SYO-1
Summary of the method: (§1)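 ATPLite readings, expressed as percent growth and averaged over up to triplicate wells, provided relative viability. Before reading, sarcoma cell lines seeded in 384-well plates to reach 80–90% confluence received 2.5 µl of serially diluted compound after 24 h, from source plates of 10 mM to 0.0002 mM. Plates were held 72 h at 37 °C, 5% CO2, with 0.1% DMSO as vehicle and a 5 µM positive control. The data were rescaled to 1 for full and 0 for none.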

[2] = test system: A204
Summary of the method: as §1

[3] = test system: SW982
Summary of the method: as §1

[4] = test system: HS729
Summary of the method: as §1

[5] = test system: KHOS-240S
Summary of the method: as §1

Cc1cc2c(F)c(Oc3ncnn4cc(OC[C@@H](C)OC(=O)[C@H](C)N)c(C)c34)ccc2[nH]1 [Brivanib_alaninate]
relative viability
Details	[1]	[2]	[3]	[4]	[5]
0.00017 µM	0.934	1.05	1.05	0.943	1.016
0.00051 µM	0.937	1.05	1.03	0.893	1.04
0.00152 µM	0.94	1.07	1.04	0.914	1.03
0.00457 µM	0.927	1.11	1.04	0.878	1.04
0.01372 µM	0.9194	1.08	1.05	0.9	1.052
0.04115 µM	0.914	1.04	1.05	0.897	1.03
0.1235 µM	0.906	1.03	1.06	0.877	1.03
0.3704 µM	0.903	1.05	1.04	0.898	1.04
1.111 µM	0.846	0.999	1.09	0.923	1.007
3.333 µM	0.673	0.958	1.08	0.891	0.93
10 µM	0.586	0.567	1.12	0.782	0.738

O=C(c1ccc(F)c(F)c1Nc1ccc(I)cc1F)N1CC(O)([C@@H]2CCCCN2)C1 [Cobimetinib]
relative viability
Details	[1]	[2]	[3]	[4]	[5]
0.00017 µM	0.985	1.1	1.04	0.9644	1.07
0.00051 µM	0.998	1.11	1.02	1	1.07
0.00152 µM	0.964	1.12	1	0.97	1.09
0.00457 µM	0.9431	1.11	1.01	0.962	1.05
0.01372 µM	0.928	1.079	0.98	0.915	1.03
0.04115 µM	0.907	1.04	0.942	0.922	0.936
0.1235 µM	0.929	1.01	0.878	0.876	0.79
0.3704 µM	0.84	0.807	0.804	0.852	0.709
1.111 µM	0.719	0.616	0.765	0.763	0.669
3.333 µM	0.566	0.424	0.578	0.6553	0.549
10 µM	-0.0086	0.0102	0.0118	0.241	0.0497

Cc1c2oc3c(C)ccc(C(=O)N[C@@H]4C(=O)N[C@H](C(C)C)C(=O)N5CCC[C@H]5C(=O)N(C)CC(=O)N(C)[C@@H](C(C)C)C(=O)O[C@@H]4C)c3nc-2c(C(=O)N[C@@H]2C(=O)N[C@H](C(C)C)C(=O)N3CCC[C@H]3C(=O)N(C)CC(=O)N(C)[C@@H](C(C)C)C(=O)O[C@@H]2C)c(N)c1=O [Dactinomycin]
relative viability
Details	[1]	[2]	[3]	[4]	[5]
0.00017 µM	0.883	1.02	1.06	0.912	1.04
0.00051 µM	0.888	0.99	1.02	0.937	1.06
0.00152 µM	0.606	0.641	0.858	0.884	0.864
0.00457 µM	0.327	0.393	0.563	0.8961	0.73
0.01372 µM	0.259	0.277	0.382	0.711	0.499
0.04115 µM	0.249	0.234	0.234	0.128	0.202
0.1235 µM	0.239	0.193	0.15	0.166	0.0803
0.3704 µM	0.29	0.201	0.167	0.119	0.0989
1.111 µM	0.292	0.169	0.147	0.108	0.0816
3.333 µM	0.298	0.161	0.142	0.113	0.0805
10 µM	0.28	0.168	0.147	0.132	0.0884

C[C@@H]1CN(C(=O)c2ccc(NC(=O)c3cc(O[C@H](C)c4c(Cl)ccc(F)c4Cl)c(N)nn3)cc2)C[C@H](C)N1 [Ensartinib]
relative viability
Details	[1]	[2]	[3]	[4]	[5]
0.00017 µM	1.02	1.069	0.966	0.96	0.995
0.00051 µM	1.01	1.07	0.95947	1.02	1.02
0.00152 µM	1	1.06	0.986	1.03	1.02
0.00457 µM	0.997	1.05	0.973	1.01	1
0.01372 µM	1.02	1.05	0.97	0.998	1.03
0.04115 µM	0.981	1.05	0.965	0.986	1.02
0.1235 µM	0.927	1.04	0.982	0.955	1.01
0.3704 µM	0.91	1.06	0.855	0.888	0.994
1.111 µM	0.6316	0.98	0.513	0.764	0.847
3.333 µM	0.175	0.806	0.206	0.594	0.579
10 µM	-0.0432	0.326	0.009967	0.207	0.135

C=CC(=O)N1CCC(CNc2ncnc(N)c2-c2ccc(Oc3ccccc3)cc2)CC1 [Evobrutinib]
relative viability
Details	[1]	[2]	[3]	[4]	[5]
0.00017 µM	1.018	1.1	1.04	1.08	1.09
0.00051 µM	1.02	1.16	1.09	1.09	1.06
0.00152 µM	1.03	1.16	1.11	1.04	1.08
0.00457 µM	1.02	1.11	1.07	1.07	1.12
0.01372 µM	1.03	1.02	1.08	1.03	1.1
0.04115 µM	0.998	1.05	1.068	0.991	1.09
0.1235 µM	0.992	1.07	1.086	1.01	1.08
0.3704 µM	0.994	1.04	1.07	1.01	1.07
1.111 µM	0.965	1.07	1.06	0.978	1.07
3.333 µM	0.953	1.02	1.07	0.938	1.04
10 µM	0.894	0.871	1.12	0.862	1.03
